In patent US9428508B2, “2,4-diamino-6,7-dihydro-5H-pyrrolo[2,3]pyrimidine derivatives as FAK/Pyk2 inhibitors” (Centaurus BioPharma Co., Ltd., priority 2011, dated 2016):

What was measured:
FAK = FAK (Homo sapiens (Human), UniProt Q05397); experiment: Biochemical assay for FAK activity (LANCE TR-FRET, ULight-poly Glu,Ala,Tyr substrate); conditions: GST-tagged FAK, 120 min reaction
Outline: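 GST-tagged FAK (2.5 nM working stock) with ULight-poly Glu,Ala,Tyr (666 nM stock) and ATP (33.3 μM stock) in Tris pH 7.5/MgCl2/DTT/CHAPS buffer with BSA, 120 min; EDTA-quenched. Phosphorylation read by TR-FRET with Eu-anti-phosphotyrosine (PY20) antibody after 60 min. Compounds tested as 12-point 3-fold dilutions.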

PYK2 = PYK2 (Homo sapiens (Human), UniProt Q14289); experiment: Biochemical assay for PYK2 activity (LANCE TR-FRET, ULight-poly Glu,Ala,Tyr substrate); conditions: GST-tagged PYK2, 40 min reaction
Sequence of PYK2 (Q14289 whole entry): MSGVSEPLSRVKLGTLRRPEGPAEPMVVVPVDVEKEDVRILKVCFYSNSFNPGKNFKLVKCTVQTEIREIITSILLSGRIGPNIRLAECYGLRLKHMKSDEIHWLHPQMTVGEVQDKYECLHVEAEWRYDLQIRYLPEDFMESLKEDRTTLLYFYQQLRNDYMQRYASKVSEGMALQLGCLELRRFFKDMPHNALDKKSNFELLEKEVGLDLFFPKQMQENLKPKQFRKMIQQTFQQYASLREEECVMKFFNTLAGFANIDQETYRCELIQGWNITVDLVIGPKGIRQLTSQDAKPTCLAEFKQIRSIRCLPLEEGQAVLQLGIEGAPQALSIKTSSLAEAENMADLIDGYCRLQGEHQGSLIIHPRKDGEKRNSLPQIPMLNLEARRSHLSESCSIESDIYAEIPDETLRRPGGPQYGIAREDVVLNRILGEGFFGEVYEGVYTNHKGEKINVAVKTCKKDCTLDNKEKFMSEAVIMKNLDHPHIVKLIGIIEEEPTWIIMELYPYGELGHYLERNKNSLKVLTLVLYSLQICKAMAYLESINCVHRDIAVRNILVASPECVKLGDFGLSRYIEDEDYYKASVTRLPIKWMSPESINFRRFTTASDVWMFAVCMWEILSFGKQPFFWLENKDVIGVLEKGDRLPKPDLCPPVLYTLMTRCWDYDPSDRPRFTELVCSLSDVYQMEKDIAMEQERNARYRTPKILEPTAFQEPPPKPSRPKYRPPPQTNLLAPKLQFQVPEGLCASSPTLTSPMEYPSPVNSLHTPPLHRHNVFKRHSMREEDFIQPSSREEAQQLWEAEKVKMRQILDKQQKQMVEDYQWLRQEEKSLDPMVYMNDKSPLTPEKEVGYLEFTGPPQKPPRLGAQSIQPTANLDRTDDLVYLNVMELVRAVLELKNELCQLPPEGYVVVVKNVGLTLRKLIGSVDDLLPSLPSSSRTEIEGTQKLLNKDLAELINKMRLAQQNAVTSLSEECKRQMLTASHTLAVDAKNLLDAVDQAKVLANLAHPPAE
Outline: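 GST-tagged human PYK2 (2 nM working stock) with ULight-poly Glu,Ala,Tyr (1:1:1) peptide (666 nM working stock) and ATP (46.6 μM working stock) in 40 mM Tris pH 7.5, MgCl2, 1 mM DTT, 1 mM CHAPS; 40 min reaction, EDTA quench. Phosphotyrosine read by LANCE Eu-anti-phosphotyrosine (PY20) TR-FRET after 60 min; 12-point 3-fold compound dilutions.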

Sequence of FAK (Q05397 whole entry): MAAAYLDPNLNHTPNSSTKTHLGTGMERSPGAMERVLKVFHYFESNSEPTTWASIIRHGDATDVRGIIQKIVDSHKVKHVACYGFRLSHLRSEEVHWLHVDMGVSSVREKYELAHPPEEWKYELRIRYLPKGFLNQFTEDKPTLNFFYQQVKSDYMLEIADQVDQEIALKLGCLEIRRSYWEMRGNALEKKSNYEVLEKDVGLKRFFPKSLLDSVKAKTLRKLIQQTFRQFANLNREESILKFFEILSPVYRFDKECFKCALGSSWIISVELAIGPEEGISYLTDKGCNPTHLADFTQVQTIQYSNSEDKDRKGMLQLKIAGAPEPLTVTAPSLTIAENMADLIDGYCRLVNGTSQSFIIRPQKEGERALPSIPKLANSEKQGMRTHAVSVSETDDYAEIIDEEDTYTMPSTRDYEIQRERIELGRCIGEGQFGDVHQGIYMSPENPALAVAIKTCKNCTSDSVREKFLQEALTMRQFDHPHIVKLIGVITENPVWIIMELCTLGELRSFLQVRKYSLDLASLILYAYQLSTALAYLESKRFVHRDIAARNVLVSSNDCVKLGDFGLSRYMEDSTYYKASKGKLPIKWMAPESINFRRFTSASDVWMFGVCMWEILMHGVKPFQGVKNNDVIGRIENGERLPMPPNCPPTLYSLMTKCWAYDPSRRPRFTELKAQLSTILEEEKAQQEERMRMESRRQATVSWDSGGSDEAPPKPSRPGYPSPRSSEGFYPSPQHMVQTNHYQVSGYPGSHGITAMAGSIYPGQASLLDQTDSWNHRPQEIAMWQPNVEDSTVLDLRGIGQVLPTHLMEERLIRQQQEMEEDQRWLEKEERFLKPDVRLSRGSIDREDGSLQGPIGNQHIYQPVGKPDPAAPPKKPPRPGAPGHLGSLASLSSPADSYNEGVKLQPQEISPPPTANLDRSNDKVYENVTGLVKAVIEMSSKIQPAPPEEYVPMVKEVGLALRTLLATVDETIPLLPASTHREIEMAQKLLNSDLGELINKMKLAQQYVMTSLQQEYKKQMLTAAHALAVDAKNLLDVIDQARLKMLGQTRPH

| Structure (SMILES) | IC50 (FAK) | IC50 (PYK2) |
| --- | --- | --- |
| COc1cc(N2CCOCC2)ccc1Nc1nc2c(c(Nc3ccccc3S(=O)(=O)NC3CCCCC3)n1)C(C)(C)CN2 [Example 109, N-cyclohexyl-2-(2-(2-methoxy-4-morpholinophenylamino)-5,5-dimethyl-6,7-dihydro-5H-pyrrolo[2,3-d]pyrimidin-4-ylamino)benzenesulfonamide] | < 0.2 µM | < 0.2 µM |
| COc1cc(N2CCOCC2)ccc1Nc1nc2c(c(Nc3ccccc3S(=O)(=O)N(C)C)n1)C(C)(C)CN2 [Example 111, 2-(2-(2-methoxy-4-morpholinophenylamino)-5,5-dimethyl-6,7-dihydro-5H-pyrrolo[2,3-d]pyrimidin-4-ylamino)-N,N-dimethylbenzenesulfonamide] | < 0.02 µM | < 0.02 µM |
| COc1cc(N2CCOCC2)ccc1Nc1nc2c(c(Nc3ccccc3S(=O)(=O)Nc3ccccc3)n1)C(C)(C)CN2 [Example 116, 2-(2-(2-methoxy-4-morpholinophenylamino)-5,5-dimethyl-6,7-dihydro-5H-pyrrolo[2,3-d]pyrimidin-4-ylamino)-N-phenylbenzenesulfonamide] | < 0.2 µM | < 0.5 µM |
| COc1cc(N2CCOCC2)ccc1Nc1nc2c(c(Nc3ccccc3S(=O)(=O)NC(C)(C)C)n1)C(C)(C)CN2 [Example 117, N-tert-butyl-2-(2-(2-methoxy-4-morpholinophenylamino)-5,5-dimethyl-6,7-dihydro-5H-pyrrolo[2,3-d]pyrimidin-4-ylamino)benzenesulfonamide] | < 0.02 µM | < 0.02 µM |
| COc1cc(N2CCOCC2)ccc1Nc1nc2c(c(Nc3ccccc3C(=O)N3CCCC3)n1)C(C)(C)CN2 [Example 121, (2-(2-(2-methoxy-4-morpholinophenylamino)-5,5-dimethyl-6,7-dihydro-5H-pyrrolo[2,3-d]pyrimidin-4-ylamino)phenyl)(pyrrolidin-1-yl)methanone] | < 0.2 µM | < 0.2 µM |
| COc1cc(N2CCOCC2)ccc1Nc1nc2c(c(Nc3ccccc3N(C)S(C)(=O)=O)n1)C(C)(C)CN2 [Example 122, N-(2-(2-(2-methoxy-4-morpholinophenylamino)-5,5-dimethyl-6,7-dihydro-5H-pyrrolo[2,3-d]pyrimidin-4-ylamino)phenyl)-N-methylmethanesulfonamide] | < 0.05 µM | < 0.1 µM |
| COc1cc(N2CCOCC2)ccc1Nc1nc2c(c(Nc3cccc(C)n3)n1)C(C)(C)CN2 [Example 123, N^2-(2-methoxy-4-morpholinophenyl)-5,5-dimethyl-N^4-(6-methylpyridin-2-yl)-6,7-dihydro-5H-pyrrolo[2,3-d]pyrimidine-2,4-diamine] | < 0.2 µM | < 0.5 µM |
| COc1cc(N2CCOCC2)ccc1Nc1nc2c(c(Nc3ccccc3NC(C)=O)n1)C(C)(C)CN2 [Example 124, N-(2-(2-(2-methoxy-4-morpholinophenylamino)-5,5-dimethyl-6,7-dihydro-5H-pyrrolo[2,3-d]pyrimidin-4-ylamino)phenyl)acetamide] | < 0.2 µM | < 0.2 µM |
| COc1cc(N2CCOCC2)ccc1Nc1nc2c(c(Nc3ccc(F)c(F)c3)n1)C(C)(C)CN2 [Example 125, N^4-(3,4-difluorophenyl)-N^2-(2-methoxy-4-morpholinophenyl)-5,5-dimethyl-6,7-dihydro-5H-pyrrolo[2,3-d]pyrimidine-2,4-diamine] | < 1 µM | > 1 µM |
| CNC(=O)c1ccc2c(c1Nc1nc(Nc3ccc(N4CCOCC4)cc3OC)nc3c1C(C)(C)CN3)OCO2 [Example 126, 4-(2-(2-methoxy-4-morpholinophenylamino)-5,5-dimethyl-6,7-dihydro-5H-pyrrolo[2,3-d]pyrimidin-4-ylamino)-N-methylbenzo[d][1,3]dioxole-5-carboxamide] | < 1 µM | > 1 µM |
| COc1cc(N2CCOCC2)ccc1Nc1nc2c(c(NC3CCCCC3N(C)S(C)(=O)=O)n1)C(C)(C)CN2 (centres unmarked) [Example 127, N-(2-(2-(2-methoxy-4-morpholinophenylamino)-5,5-dimethyl-6,7-dihydro-5H-pyrrolo[2,3-d]pyrimidin-4-ylamino)cyclohexyl)-N-methylmethanesulfonamide] | < 0.1 µM | < 0.1 µM |
| CNC(=O)c1ccccc1Nc1nc(Nc2cccc3c2OCCO3)nc2c1C(C)(C)CN2 [Example 128, 2-(2-(2,3-dihydrobenzo[b][1,4]dioxin-5-ylamino)-5,5-dimethyl-6,7-dihydro-5H-pyrrolo[2,3-d]pyrimidin-4-ylamino)-N-methylbenzamide] | < 0.02 µM | < 0.02 µM |
| CNC(=O)c1ccccc1Nc1nc(Nc2ccc(N3CCOCC3)c3c2OCCO3)nc2c1C(C)(C)CN2 [Example 129, 2-(5,5-dimethyl-2-(8-morpholino-2,3-dihydrobenzo[b][1,4]dioxin-5-ylamino)-6,7-dihydro-5H-pyrrolo[2,3-d]pyrimidin-4-ylamino)-N-methylbenzamide] | < 0.05 µM | < 0.1 µM |

The remaining lines, values ahead:

| IC50 (FAK) | IC50 (PYK2) | Structure (SMILES) |
| --- | --- | --- |
| < 0.02 µM | < 0.02 µM | COc1cc(N2CCOCC2)ccc1Nc1nc2c(c(Nc3ccccc3S(=O)(=O)NC(C)C)n1)C(C)(C)CN2 [Example 105, N-isopropyl-2-(2-(2-methoxy-4-morpholinophenylamino)-5,5-dimethyl-6,7-dihydro-5H-pyrrolo[2,3-d]pyrimidin-4-ylamino)benzenesulfonamide] |
| < 0.02 µM | < 0.02 µM | CCCNS(=O)(=O)c1ccccc1Nc1nc(Nc2ccc(N3CCOCC3)cc2OC)nc2c1C(C)(C)CN2 [Example 106, 2-(2-(2-methoxy-4-morpholinophenylamino)-5,5-dimethyl-6,7-dihydro-5H-pyrrolo[2,3-d]pyrimidin-4-ylamino)-N-propylbenzenesulfonamide] |
| < 0.02 µM | < 0.02 µM | COc1cc(N2CCOCC2)ccc1Nc1nc2c(c(Nc3ccccc3S(=O)(=O)NCC(C)C)n1)C(C)(C)CN2 [Example 107, N-isobutyl-2-(2-(2-methoxy-4-morpholinophenylamino)-5,5-dimethyl-6,7-dihydro-5H-pyrrolo[2,3-d]pyrimidin-4-ylamino)benzenesulfonamide] |
| < 0.2 µM | < 0.5 µM | COc1cc(N2CCOCC2)ccc1Nc1nc2c(c(Nc3ccccc3S(=O)(=O)NC3CCCC3)n1)C(C)(C)CN2 [Example 108, N-cyclopentyl-2-(2-(2-methoxy-4-morpholinophenylamino)-5,5-dimethyl-6,7-dihydro-5H-pyrrolo[2,3-d]pyrimidin-4-ylamino)benzenesulfonamide] |
| < 0.02 µM | < 0.02 µM | CCCCNS(=O)(=O)c1ccccc1Nc1nc(Nc2ccc(N3CCOCC3)cc2OC)nc2c1C(C)(C)CN2 [Example 110, N-butyl-2-(2-(2-methoxy-4-morpholinophenylamino)-5,5-dimethyl-6,7-dihydro-5H-pyrrolo[2,3-d]pyrimidin-4-ylamino)benzenesulfonamide] |
| < 0.02 µM | < 0.02 µM | CCC(C)NS(=O)(=O)c1ccccc1Nc1nc(Nc2ccc(N3CCOCC3)cc2OC)nc2c1C(C)(C)CN2 (centres unmarked) [Example 112, N-sec-butyl-2-(2-(2-methoxy-4-morpholinophenylamino)-5,5-dimethyl-6,7-dihydro-5H-pyrrolo[2,3-d]pyrimidin-4-ylamino)benzenesulfonamide] |
| < 0.02 µM | < 0.02 µM | CCNS(=O)(=O)c1ccccc1Nc1nc(Nc2ccc(N3CCOCC3)cc2OC)nc2c1C(C)(C)CN2 [Example 113, N-ethyl-2-(2-(2-methoxy-4-morpholinophenylamino)-5,5-dimethyl-6,7-dihydro-5H-pyrrolo[2,3-d]pyrimidin-4-ylamino)benzenesulfonamide] |
| < 0.02 µM | < 0.02 µM | COCCCNS(=O)(=O)c1ccccc1Nc1nc(Nc2ccc(N3CCOCC3)cc2OC)nc2c1C(C)(C)CN2 [Example 114, 2-(2-(2-methoxy-4-morpholinophenylamino)-5,5-dimethyl-6,7-dihydro-5H-pyrrolo[2,3-d]pyrimidin-4-ylamino)-N-(3-methoxypropyl)benzenesulfonamide] |
| < 0.02 µM | < 0.02 µM | COCCNS(=O)(=O)c1ccccc1Nc1nc(Nc2ccc(N3CCOCC3)cc2OC)nc2c1C(C)(C)CN2 [Example 115, 2-(2-(2-methoxy-4-morpholinophenylamino)-5,5-dimethyl-6,7-dihydro-5H-pyrrolo[2,3-d]pyrimidin-4-ylamino)-N-(2-methoxyethyl)benzenesulfonamide] |
| < 0.05 µM | < 0.05 µM | COc1cc(N2CCOCC2)ccc1Nc1nc2c(c(Nc3ccccc3S(=O)(=O)NCC3CC3)n1)C(C)(C)CN2 [Example 118, N-(cyclopropylmethyl)-2-(2-(2-methoxy-4-morpholinophenylamino)-5,5-dimethyl-6,7-dihydro-5H-pyrrolo[2,3-d]pyrimidin-4-ylamino)benzenesulfonamide] |
| < 0.5 µM | < 0.2 µM | COc1cc(N2CCOCC2)ccc1Nc1nc2c(c(Nc3ccccc3S(=O)(=O)NCCO)n1)C(C)(C)CN2 [Example 119, N-(2-hydroxyethyl)-2-(2-(2-methoxy-4-morpholinophenylamino)-5,5-dimethyl-6,7-dihydro-5H-pyrrolo[2,3-d]pyrimidin-4-ylamino)benzenesulfonamide] |
| < 0.02 µM | < 0.05 µM | COc1cc(N2CCOCC2)ccc1Nc1nc2c(c(Nc3ccccc3S(=O)(=O)NCCN(C)C)n1)C(C)(C)CN2 [Example 120, N-(2-(dimethylamino)ethyl)-2-(2-(2-methoxy-4-morpholinophenylamino)-5,5-dimethyl-6,7-dihydro-5H-pyrrolo[2,3-d]pyrimidin-4-ylamino)benzenesulfonamide] |
